Test system: GP2D cells
Assay: GP2D proliferation assay (120 h)
Type: cell-based
Details: colorectal cancer, G12D
Experimental: GP2D cells (ATCC No. CRL-5807) are dispensed into white 384-well plates, flat and white bottom(Perkin Elmer, 6007680) at a density of 500 cells per well in 40 μl DMEM (Sigma, D6429)+1×GlutaMAX (Gibco, 35050038)+10% FCS (fetal calf serum). […] Compounds (10 mM stock in DMSO) are added at logarithmic dose series using the HP Digital Dispenser D300 (Tecan), including DMSO controls and normalizing for added DMSO. For the T0 time point measurement, untreated cells are analyzed at the time of compound addition. Plates are incubated for 120 h, and cell viability is measured using CellTiter-Glo luminescent cell viability reagent (Promega product code G7570). Viability (stated as percent of control) is defined as relative luminescence units RLU of each well divided by the RLU of cells in DMSO controls. IC50 values are determined from viability measurements by non-linear regression using a four-parameter model.

SMILES: C[C@H](Oc1ccnc(-c2noc([C@@]3(C)CCCc4sc(N)c(C#N)c43)n2)n1)[C@@H]1CCCN1C [Example V-11]
- IC50: 152 nM

Reference: patent publication US20250313553A1, “ANNULATED 2-AMINO-3-CYANO THIOPHENES AND DERIVATIVES FOR THE TREATMENT OF CANCER” (Boehringer Ingelheim Int'l GmbH Corp., priority 2021, published 2025)
